Patent US7981893B2, “Heteroaryl compounds, compositions thereof, and methods of treatment therewith” (Signal Pharmaceuticals, LLC, priority 2006, dated 2011)

Key:
[1] = target: T1, PKCθ (Homo sapiens, UniProt Q04759); assay: PKCθ IMAP Assay; format: biochemical; details: IMAP fluorescence polarization screening assay, 35 μM ATP
T1 construct: purchased Invitrogen
Protocol: The following is an example of an assay that can be used to determine the PKCθ inhibitory activity of a test compound. Reagents are prepared as follows:
Assay Buffer: 50 mM HEPES (pH 7.6), 10 mM MgCl, 0.1 mM EDTA, 5 mM MBP, 0.01% Triton, 1 mM DTT, 0.05 mg/ml phosphatidyl serine, 0.05 mg/ml diacylglycerol.
The final concentration of PKCθ (Invitrogen) is 0.5 nM. The final concentration of substrate (FAM-AKRRRLSSLRA) (Molecular Devices) is 100 nM. The final concentration of ATP in the reaction is 35 μM. The final concentration of DMSO in the reaction is 2.5%.
Enzyme is kept in 5 μl aliquots and stored at −80° C. prior to use. Test compound is allowed to pre-incubate with enzyme for 45 minutes before the reactions is initiated.
The reaction mixture consists of: 5 μl of test compound in 10% DMSO, 5 μl of 400 nM substrate (FAM-AKRRRLSSLRA), 5 μl of […] PKCθ, and 5 μl of 140 μM ATP (ATP is added to the reaction mixture last to initiate the reaction) per well.
The reaction is allowed to proceed for 60 minutes and is terminated by adding 30 μl per well of 90% Progressive A buffer/10% Progressive B buffer and a 1:400 dilution of binding beeds (Molecular Devices).
The reaction is given a binding incubation time of at least 30 minutes prior to reading the fluorescence polarization signal on an Analyst reader (the following detector settings are used: fluorescein excitation-485 nm, fluorescein emission-530 nm, fluorescein dichroic-505 nm).

[2] = target: T2, mTOR (Homo sapiens, UniProt P42345); assay: mTOR HTR-FRET Assay; format: biochemical; details: HTR-FRET screening assay, GST-p70S6 kinase fragment substrate
T2 construct: Dilute TOR fraction 1:14 in “Simple TOR Buffer”
Protocol: The following is an example of an assay that can be used to determine the mTOR inhibitory activity of a test compound. Reagents are prepared as follows:
“Simple TOR buffer” (used to dilute high glycerol TOR fraction): 10 mM Tris pH 7.4, 100 mM NaCl, 0.1% Tween-20, 1 mM DTT (from 1M stock frozen at −20° C. just prior to use). For convenience a large quantity of “Simple TOR buffer” w/o DTT can be stored at 4° C. It can be brought to room temperature and DTT added just prior to dilution of TOR fraction.
5×KB/5×Mn/5×ATP solution (used to dilute substrate GST-p70S6kin 81 a.a. just prior to use) (40 ml screen quantity shown):
Enzyme solution: Dilute TOR fraction 1:14 in “Simple TOR Buffer”. For current lot that is 640 μg/ml TOR fraction diluted 14× to yield 45.7 μg/ml TOR in buffer (i.e. 7.85 ml TOR pooled fraction+102.1 ml Simple TOR buffer=110 ml 14× diluted TOR fraction). Each Enzyme Lot must be QC'd prior to assay.
Substrate solution: This may be prepared just prior to assay if preferred. Dilute 5.3 mg/ml GST-p70S6kinase fragment stock to 3.5 μg/ml (97 nM) working stock in 5×KB/5×Mn/5×ATP solution (i.e. 26.41 μL (5.3 mg/ml) GST-p70S6+40 ml 5×KB/5×Mn/5×ATP=40 ml 3.5 μg/ml (97 nM)).
Assay Buffer (for dilution of Antibodies used in Antibody Detection Reagent):
Antibody Detection Reagent (this reagent should be made just prior to addition to Assay Plates):
Using PlateTrak program (Screen) or Matrix Pipettor (SAR), 19.5 μL of diluted TOR fraction is added to assay plate in all test, reference or positive control wells. 19.5 μL of “Simple TOR buffer” is added to all negative control wells. If treating multiple plates with the same compounds, can increase volume of enzyme to multiples of 19.5 μL in a tall 384 well polypropylene plate.
Using EP3, 0.5 μl of test, reference or control DMSO is added to each well with mixing. Plates are incubated for 30 minutes at room temperature.
Using PlateTrak program (Screen) or Matrix Pipettor (SAR) 5 μL of 5×KB/5×Mn/5×ATP/5× substrate solution is added to each well of the assay plate to start the reaction. The solutions are mixed well and incubated for 2 hours at room temperature.
Using PlateTrak program (Screen) or Matrix Pipettor (SAR) 5 μL of 60 mM EDTA is added to stop the reaction. The solutions are mixed well and allowed to sit for 15-20 minutes before the next step.
Using PlateTrak program (Screen) or Matrix Pipettor (SAR) 10 μl of Antibody Detection Reagent is added. The solutions are mixes well and incubated for 5 hours to O/N to allow antibodies to form complexes with phosphorylated substrate.
Plates are read on AnalystHT using protocol Multi-Method protocol.

T1 sequence (Q04759 whole entry): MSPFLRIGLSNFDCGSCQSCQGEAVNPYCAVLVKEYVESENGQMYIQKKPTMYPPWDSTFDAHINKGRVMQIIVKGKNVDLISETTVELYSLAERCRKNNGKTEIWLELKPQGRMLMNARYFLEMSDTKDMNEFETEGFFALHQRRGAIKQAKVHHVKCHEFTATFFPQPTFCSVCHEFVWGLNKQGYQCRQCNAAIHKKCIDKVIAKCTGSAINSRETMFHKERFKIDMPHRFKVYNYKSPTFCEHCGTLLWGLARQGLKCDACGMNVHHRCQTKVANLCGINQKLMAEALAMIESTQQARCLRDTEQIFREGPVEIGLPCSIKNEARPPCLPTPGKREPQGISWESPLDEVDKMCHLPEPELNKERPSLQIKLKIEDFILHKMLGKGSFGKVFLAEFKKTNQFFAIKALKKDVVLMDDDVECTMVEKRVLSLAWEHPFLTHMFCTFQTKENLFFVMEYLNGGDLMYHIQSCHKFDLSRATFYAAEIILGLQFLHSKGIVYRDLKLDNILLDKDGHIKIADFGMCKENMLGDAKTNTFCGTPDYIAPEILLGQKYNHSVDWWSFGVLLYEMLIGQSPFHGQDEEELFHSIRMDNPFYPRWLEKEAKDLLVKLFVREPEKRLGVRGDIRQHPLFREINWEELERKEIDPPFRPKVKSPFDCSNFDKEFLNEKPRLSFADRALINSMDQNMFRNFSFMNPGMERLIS

IC50 [1] [µM] | IC50 [2] [µM] | Structure (SMILES)
> 30 | 0.1 to 5 | COc1cccc(Cn2c(=O)[nH]c3ncc(-c4ccc(S(C)(=O)=O)cc4)nc32)c1 [Compound 4, 1-(3-methoxybenzyl)-6-(4-(methylsulfonyl)phenyl)-1H-imidazo[4,5-b]pyrazin-2(3H)-one]
0.1 to 5 | > 30 | CC[C@H](c1ccccc1)n1c(=O)[nH]c2ncc(-c3cccc4ncccc34)nc21 [Compound 45, (R)-1-(1-phenylpropyl)-6-(quinolin-5-yl)-1H-imidazo[4,5-b]pyrazin-2(3H)-one]
> 30 | > 30 | O=c1[nH]c2ncc(-c3cccc4ncccc34)nc2n1C1CCOCC1 [Compound 57, 6-(quinolin-5-yl)-1-(tetrahydro-2H-pyran-4-yl)-1H-imidazo[4,5-b]pyrazin-2(3H)-one]
10.1 to 20 | 5.1 to 10 | CC(c1ccccc1)n1c(=O)[nH]c2ncc(-c3cccc4cnccc34)nc21 (stereo not shown) [Compound 61, 6-(isoquinolin-5-yl)-1-(1-phenylethyl)-1H-imidazo[4,5-b]pyrazin-2(3H)-one]
> 30 | 5.1 to 10 | CC(c1ccccc1)n1c(=O)[nH]c2ncc(-c3ccc4ncccc4c3)nc21 (stereo not shown) [Compound 73, 1-(1-phenylethyl)-6-(quinolin-6-yl)-1H-imidazo[4,5-b]pyrazin-2(3H)-one]
> 30 | 0.1 to 5 | O=c1[nH]c2ncc(-c3cccc4ncccc34)nc2n1Cc1ccccc1 [Compound 14, 1-benzyl-6-(quinolin-5-yl)-1H-imidazo[4,5-b]pyrazin-2(3H)-one]
5.1 to 10 | > 30 | C[C@H](c1ccccc1)n1c(=O)[nH]c2ccc(-c3cccc4ncccc34)nc21 [Compound 27, (R)-3-(1-phenylethyl)-5-(quinolin-5-yl)-1H-imidazo[4,5-b]pyridin-2(3H)-one]
> 30 | 0.1 to 5 | COc1cccc(Cn2c(=O)[nH]c3ncc(-c4cccc5ncccc45)nc32)c1 [Compound 47, 1-(3-methoxybenzyl)-6-(quinolin-5-yl)-1H-imidazo[4,5-b]pyrazin-2(3H)-one]
5.1 to 10 | > 30 | CC(c1ccccc1)n1c(=O)[nH]c2ccc(-c3cccc4ncccc34)nc21 (stereo not shown) [Compound 26, 3-(1-phenylethyl)-5-(quinolin-5-yl)-1H-imidazo[4,5-b]pyridin-2(3H)-one]
> 30 | > 30 | C[C@H](c1ccccc1)n1c(=O)[nH]c2cnc(-c3cccc4ncccc34)cc21 [Compound 24, (R)-1-(1-phenylethyl)-6-(quinolin-5-yl)-1H-imidazo[4,5-c]pyridin-2(3H)-one]
0.1 to 5 | 5.1 to 10 | CC(c1cccc(F)c1)n1c(=O)[nH]c2ncc(-c3cccc4ncccc34)nc21 (stereo not shown) [Compound 54, 1-(1-(3-fluorophenyl)ethyl)-6-(quinolin-5-yl)-1H-imidazo[4,5-b]pyrazin-2(3H)-one]
20.1 to 30 | 5.1 to 10 | CC(C)n1c(=O)[nH]c2ncc(-c3cccc4ncccc34)nc21 [Compound 64, 1-isopropyl-6-(quinolin-5-yl)-1H-imidazo[4,5-b]pyrazin-2(3H)-one]
> 30 | > 30 | C[C@@H](c1ccccc1)n1c(=O)[nH]c2cnc(-c3cccc4ncccc34)cc21 [Compound 25, (S)-1-(1-phenylethyl)-6-(quinolin-5-yl)-1H-imidazo[4,5-c]pyridin-2(3H)-one]
5.1 to 10 | 5.1 to 10 | CC(c1ccccc1F)n1c(=O)[nH]c2ncc(-c3cccc4ncccc34)nc21 (stereo not shown) [Compound 51, 1-(1-(2-fluorophenyl)ethyl)-6-(quinolin-5-yl)-1H-imidazo[4,5-b]pyrazin-2(3H)-one]
> 30 | 5.1 to 10 | CC(c1ccccc1)n1c(=O)[nH]c2ncc(-c3ccc(S(C)(=O)=O)cc3)nc21 (stereo not shown) [Compound 85, 6-(4-(methylsulfonyl)phenyl)-1-(1-phenylethyl)-1H-imidazo[4,5-b]pyrazin-2(3H)-one]
10.1 to 20 | 0.1 to 5 | CC(c1ccccc1)n1c(=O)[nH]c2ncc(-c3cccc(NS(C)(=O)=O)c3)nc21 (stereo not shown) [Compound 84, N-(3-(2-oxo-3-(1-phenylethyl)-2,3-dihydro-1H-imidazo[4,5-b]pyrazin-5-yl)phenyl)methanesulfonamide]
0.1 to 5 | 5.1 to 10 | CC(c1ccc(Cl)cc1)n1c(=O)[nH]c2ncc(-c3cccc4ncccc34)nc21 (stereo not shown) [Compound 65, 1-(1-(4-chlorophenyl)ethyl)-6-(quinolin-5-yl)-1H-imidazo[4,5-b]pyrazin-2(3H)-one]
0.1 to 5 | > 30 | COc1ccc(C(C)n2c(=O)[nH]c3ncc(-c4cccc5ncccc45)nc32)cc1 (stereo not shown) [Compound 56, 1-(1-(4-methoxyphenyl)ethyl)-6-(quinolin-5-yl)-1H-imidazo[4,5-b]pyrazin-2(3H)-one]
> 30 | 5.1 to 10 | O=c1[nH]c2ncc(-c3cccc4ncccc34)nc2n1C1CCCC1 [Compound 53, 1-cyclopentyl-6-(quinolin-5-yl)-1H-imidazo[4,5-b]pyrazin-2(3H)-one]
> 30 | 5.1 to 10 | C[C@@H](c1ccccc1)n1c(=O)[nH]c2ncc(-c3cccc4ncccc34)nc21 [Compound 5, (S)-1-(1-phenylethyl)-6-(quinolin-5-yl)-1H-imidazo[4,5-b]pyrazin-2(3H)-one]
10.1 to 20 | 10.1 to 20 | O=c1[nH]c2ncc(-c3cccc4ncccc34)nc2n1C1CCC(O)CC1 (stereo not shown) [Compound 59, 1-((1s,4s)-4-hydroxycyclohexyl)-6-(quinolin-5-yl)-1H-imidazo[4,5-b]pyrazin-2(3H)-one]
0.1 to 5 | 5.1 to 10 | O=c1[nH]c2ncc(-c3cccc4ncccc34)nc2n1[C@H](CO)c1ccccc1 [Compound 41, (S)-1-(2-hydroxy-1-phenylethyl)-6-(quinolin-5-yl)-1H-imidazo[4,5-b]pyrazin-2(3H)-one]
10.1 to 20 | 10.1 to 20 | O=c1[nH]c2ncc(-c3cccc4ncccc34)nc2n1[C@@H](CO)c1ccccc1 [Compound 40, (R)-1-(2-hydroxy-1-phenylethyl)-6-(quinolin-5-yl)-1H-imidazo[4,5-b]pyrazin-2(3H)-one]
5.1 to 10 | > 30 | Cc1nc2[nH]c(=O)n([C@H](C)c3ccccc3)c2nc1-c1cccc2ncccc12 [Compound 69, 5-methyl-1-((R)-1-phenylethyl)-6-(quinolin-5-yl)-1H-imidazo[4,5-b]pyrazin-2(3H)-one]
20.1 to 30 | > 30 | O=c1[nH]c2ncc(-c3cccc4ncccc34)nc2n1C1CCC(O)CC1 (stereo not shown) [Compound 60, 1-((1r,4r)-4-hydroxycyclohexyl)-6-(quinolin-5-yl)-1H-imidazo[4,5-b]pyrazin-2(3H)-one]
0.1 to 5 | 10.1 to 20 | C[C@H](c1ccccc1)n1c(=O)[nH]c2ncc(-c3cccc4ncccc34)nc21 [Compound 10, (R)-1-(1-phenylethyl)-6-(quinolin-5-yl)-1H-imidazo[4,5-b]pyrazin-2(3H)-one]
